Results reported in PubChem BioAssay AID1259408 (Genetic Toxicology Data Bank (GENE-TOX), 2018).
Active and inactive are the calls of the source. No rule for the calls is given here.

Tested on: GENE-TOX genotoxicity assays, various organisms and cells
Test: GENE-TOX mutagenicity studies
Conditions: for call: Assay Type: In vivo carcinogenicity studies
[1] = Species/Cell Type: Salmonella typhimurium (one or more of the five standard strains: TA98, TA100, TA1535, TA1537, and TA1538), Assay Type: Histidine reverse gene mutation, Ames assay, Assay Code: SAL+*, Activation: With metabolic activation, Evaluation Type: Evaluation A (Pre-1980)
[2] = Species/Cell Type: Nonhuman, Assay Type: Sister-chromatid exchange (SCE) in vitro, Assay Code: SC2+D, Dose Response: With dose response, Evaluation Type: Evaluation B (Post-1980)
[3] = Species/Cell Type: Human lymphocytes, Assay Type: Sister-chromatid exchange (SCE) in vitro, Assay Code: SCL+D, Dose Response: With dose response, Evaluation Type: Evaluation B (Post-1980)
[4] = Species/Cell Type: Human, Assay Type: Sister-chromatid exchange (SCE) in vitro, Assay Code: SC1+D, Dose Response: With dose response, Evaluation Type: Evaluation B (Post-1980)
[5] = Species/Cell Type: Mammalian polychromatic erythrocytes, Assay Type: Micronucleus test, chromosome aberrations, Assay Code: MNTT, Evaluation Type: Evaluation B (Post-1980)
[6] = Species/Cell Type: Human diploid fibroblasts, Assay Type: Unscheduled DNA synthesis (UDS) in vitro, DNA effects, Assay Code: UDH-, Evaluation Type: Evaluation A (Pre-1980)
[7] = Species/Cell Type: Saccharomyces cerevisiae, Assay Type: Mitotic recombination or gene conversion, Assay Code: YEH-, Evaluation Type: Evaluation A (Pre-1980)
[8] = Species/Cell Type: Bacillus subtilis (H17 vs M45), Assay Type: Rec-assay, spot test, DNA effects (bacterial DNA repair), Assay Code: REWT, Evaluation Type: Evaluation A (Pre-1980)
[9] = Species/Cell Type: Drosophila melanogaster, Assay Type: Sex-linked recessive lethal gene mutation, Assay Code: SRLT, Evaluation Type: Evaluation A (Pre-1980)
[10] = Species/Cell Type: Salmonella typhimurium (one or more of the five standard strains: TA98, TA100, TA1535, TA1537, and TA1538), Assay Type: Histidine reverse gene mutation, Ames assay, Assay Code: SALT, Evaluation Type: Evaluation A (Pre-1980)
[11] = Species/Cell Type: Nonhuman, Assay Type: Sister-chromatid exchange (SCE) in vitro, Assay Code: SC2T, Evaluation Type: Evaluation B (Post-1980)
[12] = Species/Cell Type: Bacillus subtilis (H17 vs M45), Assay Type: Rec-assay, spot test, DNA effects (bacterial DNA repair), Assay Code: REW-, Evaluation Type: Evaluation A (Pre-1980)
[13] = Species/Cell Type: Nonhuman, Assay Code: CCG+L, Evaluation Type: Evaluation A (Pre-1980)
[14] = Species/Cell Type: Nonhuman, Assay Code: CCG+, Evaluation Type: Evaluation A (Pre-1980)
[15] = Species/Cell Type: Chinese hamster lung (V79) cells, Assay Type: Forward gene mutation at the HPRT or ouabain locus, Assay Code: V79-, Evaluation Type: Evaluation A (Pre-1980)

SMILES: COc1ccc2c3c(cccc13)C(=O)c1ccccc1-2
- mutagenic call [1]: active; positive

SMILES: Cc1ccc2ccc3cc4ccccc4cc3c2c1
- mutagenic call [2]: active; positive
- mutagenic call [1]: active; positive

SMILES: COc1cccc2c1cc([N+](=O)[O-])c1c(C(=O)O)cc3c(c12)OCO3
- mutagenic call [3]: active; positive
- mutagenic call [4]: active; positive

SMILES: C[C@@H]1O[C@@H](OC[C@H]2O[C@@H](Oc3c(-c4ccc(O)c(O)c4)oc4cc(O)cc(O)c4c3=O)[C@H](O)[C@@H](O)[C@@H]2O)[C@H](O)[C@H](O)[C@H]1O
- mutagenic call [5]: no conclusion

SMILES: CC1(C)C(C=C(Cl)Cl)C1C(=O)OC(C#N)c1cccc(Oc2ccccc2)c1 (stereo not given)
- mutagenic call [6]: inactive; negative
- mutagenic call (Species/Cell Type: Mammalian polychromatic erythrocytes, Assay Type: Micronucleus test, chromosome aberrations, Assay Code: MNT+, Evaluation Type: Evaluation B (Post-1980)): active; positive
- mutagenic call [7]: inactive; negative

SMILES: Nc1c(Cl)cc(-c2cc(Cl)c(N)c(Cl)c2)cc1Cl
- mutagenic call (Species/Cell Type: Human diploid fibroblasts, Assay Type: Unscheduled DNA synthesis (UDS) in vitro, DNA effects, Assay Code: UDH+*, Activation: With metabolic activation, Evaluation Type: Evaluation A (Pre-1980)): active; positive

SMILES: CCOP(=S)(OCC)Oc1ccc([N+](=O)[O-])cc1
- mutagenic call (Species/Cell Type: Allium cepa, Assay Type: Chromosome aberrations, Assay Code: ALC+D, Dose Response: With dose response, Evaluation Type: Evaluation A (Pre-1980)): active; positive
- mutagenic call [8]: no conclusion
- mutagenic call [9]: no conclusion
- mutagenic call (Species/Cell Type: Escherichia coli WP2 UVRA, Assay Type: Tryptophan reverse gene mutation, Assay Code: WPU-*, Activation: With metabolic activation, Evaluation Type: Evaluation A (Pre-1980)): inactive; negative
- mutagenic call (Species/Cell Type: Escherichia coli polA (W3119 vs P3478), Assay Type: Rec-assay, DNA effects (bacterial DNA repair), Assay Code: RE1T, Evaluation Type: Evaluation A (Pre-1980)): no conclusion
- mutagenic call [6]: inactive; negative
- mutagenic call [3]: active; positive
- mutagenic call [4]: active; positive
- mutagenic call [2]: active; positive
- mutagenic call [7]: inactive; negative
- mutagenic call [10]: no conclusion

SMILES: CSc1ccc([C@H](O)[C@H](CO)NC(=O)C(Cl)Cl)cc1
- mutagenic call [10]: no conclusion

SMILES: O=Cc1ccccc1
- mutagenic call (Species/Cell Type: Neurospora crassa, Assay Type: Reverse gene mutation, Assay Code: NER+, Evaluation Type: Evaluation A (Pre-1980)): active; positive

SMILES: CC#CC#CC#Cc1ccccc1
- mutagenic call [11]: no conclusion

SMILES: FC(F)F
- mutagenic call [9]: no conclusion

SMILES: COc1cc(O)ccc1O
- mutagenic call (Species/Cell Type: Allium cepa, Assay Type: Chromosome aberrations, Assay Code: ALCT, Evaluation Type: Evaluation A (Pre-1980)): no conclusion

SMILES: Cc1cc2c(c3ccc4ccccc4c13)CCC2C (stereo not given)
- mutagenic call [1]: active; positive

SMILES: CC1CC2OC(/C=C/C=C/C=C/C=C/C=C/C(O)=C3\C(=O)C(C(C)C)N(C)C3=O)C(O)C2O1 (stereo not given)
- mutagenic call [12]: inactive; negative

SMILES: CC(C)NCC(O)COc1ccc(CC(N)=O)cc1 (stereo not given)
- mutagenic call [5]: no conclusion

SMILES: CC(=O)N(O)c1ccc2c(ccc3ccccc32)c1
- mutagenic call (Species/Cell Type: Human diploid fibroblasts, Assay Type: Unscheduled DNA synthesis (UDS) in vitro, DNA effects, Assay Code: UDH+, Evaluation Type: Evaluation A (Pre-1980)): active; positive
- call [13]: active; positive

SMILES: O=NN1CCCC1
- mutagenic call (Species/Cell Type: Chinese hamster lung (V79) cells, Assay Type: Forward gene mutation at the HPRT or ouabain locus, Assay Code: V79+, Evaluation Type: Evaluation A (Pre-1980)): active; positive
- call [14]: active; positive
- mutagenic call (Species/Cell Type: Nonhuman, Assay Type: Sister-chromatid exchange (SCE) in vivo, Assay Code: SC3+, Evaluation Type: Evaluation B (Post-1980)): active; positive
- mutagenic call (Species/Cell Type: Rat primary hepatocytes, Assay Type: Unscheduled DNA synthesis (UDS) in vitro, DNA effects, Assay Code: UDP+D, Dose Response: With dose response, Evaluation Type: Evaluation A (Pre-1980)): active; positive
- mutagenic call [1]: active; positive

SMILES: N[C@@H]1CONC1=O
- mutagenic call (Species/Cell Type: Escherichia coli polA (W3119 vs P3478), Assay Type: Rec-assay, DNA effects (bacterial DNA repair), Assay Code: RE1-, Evaluation Type: Evaluation A (Pre-1980)): inactive; negative

SMILES: O=NN1CC=CCC1
- mutagenic call (Species/Cell Type: Drosophila melanogaster, Assay Type: Aneuploidy, partial sex chromosome loss, chromosome aberrations, Assay Code: DAPT, Evaluation Type: Evaluation A (Pre-1980)): no conclusion
- mutagenic call (Species/Cell Type: Drosophila melanogaster, Assay Type: Aneuploidy, whole sex chromosome loss, chromosome aberrations, Assay Code: DACT, Evaluation Type: Evaluation A (Pre-1980)): no conclusion
- mutagenic call (Species/Cell Type: Drosophila melanogaster, Assay Type: Sex-linked recessive lethal gene mutation, Assay Code: SRL+, Evaluation Type: Evaluation A (Pre-1980)): active; positive
- mutagenic call (Species/Cell Type: Salmonella typhimurium (one or more of the five standard strains: TA98, TA100, TA1535, TA1537, and TA1538), Assay Type: Histidine reverse gene mutation, Ames assay, Assay Code: SAL+, Evaluation Type: Evaluation A (Pre-1980)): active; positive

SMILES: ClC(Cl)Cl
- mutagenic call [15]: inactive; negative
- mutagenic call [3]: active; positive
- mutagenic call [4]: active; positive
- mutagenic call (Species/Cell Type: Mammalian polychromatic erythrocytes, Assay Type: Micronucleus test, chromosome aberrations, Assay Code: MNTT, Evaluation Type: Evaluation A (Pre-1980)): no conclusion
- mutagenic call (Species/Cell Type: Mouse, Sex: Male, Assay Type: Sperm morphology, Assay Code: SPIT, Evaluation Type: Evaluation A (Pre-1980)): no conclusion
- call [14]: active; positive
- mutagenic call [11]: no conclusion
- mutagenic call (Species/Cell Type: Nonhuman, Assay Type: Sister-chromatid exchange (SCE) in vivo, Assay Code: SC3+D, Dose Response: With dose response, Evaluation Type: Evaluation B (Post-1980)): active; positive
- mutagenic call (Species/Cell Type: Saccharomyces cerevisiae, Assay Type: Mitotic recombination or gene conversion, Assay Code: YEC+, Evaluation Type: Evaluation A (Pre-1980)): active; positive
- mutagenic call (Species/Cell Type: Saccharomyces cerevisiae, Assay Type: Mitotic recombination or gene conversion, Assay Code: YEH+, Evaluation Type: Evaluation A (Pre-1980)): active; positive
- mutagenic call (Species/Cell Type: Saccharomyces cerevisiae, Assay Type: Reverse gene mutation, Assay Code: YER+, Evaluation Type: Evaluation A (Pre-1980)): active; positive
- mutagenic call (Species/Cell Type: Syrian hamster embryo (SA7/SHE) cells, Assay Type: Cell transformation, viral enhanced, Assay Code: CT7-, Evaluation Type: Evaluation A (Pre-1980)): inactive; negative

SMILES: O=C1OC2(c3cc(Br)c(O)c(Br)c3Oc3c2cc(Br)c(O)c3Br)c2c(Cl)ccc(Cl)c21
- mutagenic call [12]: inactive; negative
- mutagenic call (Species/Cell Type: Bacillus subtilis (H17 vs M45T), Assay Type: Rec-assay, spot test, DNA effects (bacterial DNA repair), Assay Code: REX+, Evaluation Type: Evaluation A (Pre-1980)): active; positive

SMILES: CC1=C2CCc3c2c(cc2c3ccc3ccccc32)C(O)C1O (stereo not given)
- mutagenic call [15]: inactive; negative
- call [13]: active; positive

SMILES: Cc1ccc2nc3sc(=O)sc3nc2c1
- mutagenic call (Species/Cell Type: Saccharomyces cerevisiae, Assay Type: Mitotic recombination or gene conversion, Assay Code: YEC-, Evaluation Type: Evaluation A (Pre-1980)): inactive; negative

SMILES: CCOCC
- mutagenic call (Species/Cell Type: Aspergillus nidulans, Assay Type: Forward gene mutation, Assay Code: ASF-, Evaluation Type: Evaluation A (Pre-1980)): inactive; negative
- mutagenic call (Species/Cell Type: Escherichia coli polA (W3119 vs P3478), Assay Type: Rec-assay, DNA effects (bacterial DNA repair), Assay Code: RE1+, Evaluation Type: Evaluation A (Pre-1980)): active; positive
- mutagenic call (Species/Cell Type: Mouse, Sex: Male, Assay Type: Sperm morphology, Assay Code: SPI-, Evaluation Type: Evaluation A (Pre-1980)): inactive; negative
- mutagenic call [11]: no conclusion
- mutagenic call [10]: no conclusion

SMILES: Cc1cc(C)c(S(=O)(=O)O)cc1N=Nc1cc(S(=O)(=O)O)c2ccccc2c1O
- mutagenic call [8]: no conclusion
- mutagenic call (Species/Cell Type: Bacillus subtilis (H17 vs M45T), Assay Type: Rec-assay, spot test, DNA effects (bacterial DNA repair), Assay Code: REXT, Evaluation Type: Evaluation A (Pre-1980)): no conclusion
- mutagenic call (Species/Cell Type: Salmonella typhimurium (one or more of the five standard strains: TA98, TA100, TA1535, TA1537, and TA1538), Assay Type: Histidine reverse gene mutation, Ames assay, Assay Code: SAL-, Evaluation Type: Evaluation A (Pre-1980)): inactive; negative

SMILES: Nc1ccc(N=Nc2ccccc2)c(N)n1
- call [14]: active; positive

SMILES: CC(=O)Nc1nc(-c2ccc([N+](=O)[O-])s2)cs1
- mutagenic call [10]: no conclusion

SMILES: S=[Se]=S
- call [14]: active; positive

SMILES: O=c1[nH]c2ccccc2n1CCCN1CCC(n2c(=O)[nH]c3cc(Cl)ccc32)CC1
- mutagenic call (Species/Cell Type: Mammalian polychromatic erythrocytes, Assay Type: Micronucleus test, chromosome aberrations, Assay Code: MNT+U, Dose Response: Unconfirmed positive response, Evaluation Type: Evaluation B (Post-1980)): active; positive
